The supplement of paper PMC10307832

Tests used:
Test in all cases: relative viability (nuclei count vs DMSO), 5 days (fraction); higher = more cells survive
NCI-H460 = test system: NCI-H460
Outline: (§1)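 Lung cancer cell lines in 1536-well plates were dosed by pin tool the day after seeding, either with one drug alone or with a fixed anchor-drug dose plus five library-drug doses (not always all listed) in √10 steps. After 5 days, cells were fixed and their nuclei stained in one step (final 0.05% Triton X-100, 1% formaldehyde, 1 ug/ml Hoechst), then counted on 4× images. Relative viability is the nuclei count in treated wells divided by that in vehicle wells. Values are medians of duplicate plates.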

NCI-H2009 = test system: NCI-H2009
Outline: as §1

A549 = test system: A549
Outline: as §1

NCI-H1703 = test system: NCI-H1703
Outline: as §1

HCC-78 = test system: HCC-78
Outline: as §1

IA-LM = test system: IA-LM
Outline: as §1

EBC-1 = test system: EBC-1
Outline: as §1

Calu-6 = test system: Calu-6
Outline: as §1

NCI-H1299 = test system: NCI-H1299
Outline: as §1

NCI-H661 = test system: NCI-H661
Outline: as §1

Work on `Nc1ccn([C@@H]2O[C@H](CO)[C@@H](O)[C@@H]2O)c(=O)n1` [Cytarabine] + CC1(C)CCC(c2ccc(Cl)cc2)=C(CN2CCN(c3ccc(C(=O)NS(=O)(=O)c4ccc(N[C@H](CCN5CCOCC5)CSc5ccccc5)c(S(=O)(=O)C(F)(F)F)c4)cc3)CC2)C1 [Navitoclax] (partner 0.5 µM) yielded a relative viability (NCI-H460; first compound 0.005 µM) of 1.06, a relative viability (NCI-H460; first compound 0.01581 µM) of 1.16 and a relative viability (NCI-H460; first compound 0.05 µM) of 0.323. The relative viability (NCI-H460; first compound 0.1581 µM) was 0.0167, the relative viability (NCI-H460; first compound 0.5 µM) was 0.0173 and the relative viability (NCI-H2009; first compound 0.005 µM) was 1.13. The relative viability (NCI-H2009; first compound 0.01581 µM) was 1.21, the relative viability (NCI-H2009; first compound 0.05 µM) was 0.99 and the relative viability (NCI-H2009; first compound 0.1581 µM) was 0.898. It also gave a relative viability (NCI-H2009; first compound 0.5 µM) of 0.31, a relative viability (A549; first compound 0.005 µM) of 0.969 and a relative viability (A549; first compound 0.01581 µM) of 0.588. The relative viability (A549; first compound 0.05 µM) was 0.476, the relative viability (A549; first compound 0.1581 µM) was 0.0384 and the relative viability (A549; first compound 0.5 µM) was 0.0234. For the same molecule, the relative viability (NCI-H1703; first compound 0.005 µM) was 0.717, the relative viability (NCI-H1703; first compound 0.01581 µM) was 0.365 and the relative viability (NCI-H1703; first compound 0.05 µM) was 0.244. The relative viability (NCI-H1703; first compound 0.1581 µM) was 0.135, the relative viability (NCI-H1703; first compound 0.5 µM) was 0.105 and the relative viability (HCC-78; first compound 0.005 µM) was 0.879. For the same molecule, the relative viability (HCC-78; first compound 0.01581 µM) was 0.652, the relative viability (HCC-78; first compound 0.05 µM) was 0.684 and the relative viability (HCC-78; first compound 0.1581 µM) was 0.364. For the same molecule, the relative viability (HCC-78; first compound 0.5 µM) was 0.219, the relative viability (IA-LM; first compound 0.005 µM) was 0.917 and the relative viability (IA-LM; first compound 0.01581 µM) was 0.603. The relative viability (IA-LM; first compound 0.05 µM) was 0.64, the relative viability (IA-LM; first compound 0.1581 µM) was 0.279 and the relative viability (IA-LM; first compound 0.5 µM) was 0.151. For the same molecule, the relative viability (EBC-1; first compound 0.005 µM) was 0.304, the relative viability (EBC-1; first compound 0.01581 µM) was 0.281 and the relative viability (EBC-1; first compound 0.05 µM) was 0.233. It also gave a relative viability (EBC-1; first compound 0.1581 µM) of 0.222, a relative viability (EBC-1; first compound 0.5 µM) of 0.165 and a relative viability (Calu-6; first compound 0.005 µM) of 0.831. For the same molecule, the relative viability (Calu-6; first compound 0.01581 µM) was 0.796, the relative viability (Calu-6; first compound 0.05 µM) was 0.9 and the relative viability (Calu-6; first compound 0.1581 µM) was 0.338. For the same molecule, the relative viability (Calu-6; first compound 0.5 µM) was 0.22, the relative viability (NCI-H1299; first compound 0.005 µM) was 1.09 and the relative viability (NCI-H1299; first compound 0.01581 µM) was 1.13. It also gave a relative viability (NCI-H1299; first compound 0.05 µM) of 1.08, a relative viability (NCI-H1299; first compound 0.1581 µM) of 1.02 and a relative viability (NCI-H1299; first compound 0.5 µM) of 0.989.
For `COc1cc2nccc(Oc3ccc(NC(=O)Nc4cc(C)on4)c(Cl)c3)c2cc1OC` [Tivozanib] + CC(C)C[C@H](NC(=O)[C@H](Cc1ccccc1)NC(=O)c1cnccn1)B(O)O [Bortezomib] (partner 0.002 µM), the relative viability (NCI-H460; first compound 0.005 µM) was 1.13, the relative viability (NCI-H460; first compound 0.01581 µM) was 1.04 and the relative viability (NCI-H460; first compound 0.05 µM) was 1. The relative viability (NCI-H460; first compound 0.1581 µM) was 1.12, the relative viability (NCI-H460; first compound 0.5 µM) was 1.03 and the relative viability (NCI-H2009; first compound 0.005 µM) was 0.945. The relative viability (NCI-H2009; first compound 0.01581 µM) was 1.02, the relative viability (NCI-H2009; first compound 0.05 µM) was 1.04 and the relative viability (NCI-H2009; first compound 0.1581 µM) was 1.04. The relative viability (NCI-H2009; first compound 0.5 µM) was 0.732, the relative viability (NCI-H661; first compound 0.005 µM) was 0.682 and the relative viability (NCI-H661; first compound 0.01581 µM) was 0.818. The relative viability (NCI-H661; first compound 0.05 µM) was 0.753, the relative viability (NCI-H661; first compound 0.1581 µM) was 0.717 and the relative viability (NCI-H661; first compound 0.5 µM) was 0.85. For the same molecule, the relative viability (NCI-H1703; first compound 0.005 µM) was 0.247, the relative viability (NCI-H1703; first compound 0.01581 µM) was 0.186 and the relative viability (NCI-H1703; first compound 0.05 µM) was 0.154. The relative viability (NCI-H1703; first compound 0.1581 µM) was 0.167, the relative viability (NCI-H1703; first compound 0.5 µM) was 0.164 and the relative viability (HCC-78; first compound 0.005 µM) was 0.383. For the same molecule, the relative viability (HCC-78; first compound 0.01581 µM) was 0.496, the relative viability (HCC-78; first compound 0.05 µM) was 0.57 and the relative viability (HCC-78; first compound 0.1581 µM) was 0.549. The relative viability (HCC-78; first compound 0.5 µM) was 0.452, the relative viability (IA-LM; first compound 0.005 µM) was 0.716 and the relative viability (IA-LM; first compound 0.01581 µM) was 0.812. It also gave a relative viability (IA-LM; first compound 0.05 µM) of 0.821, a relative viability (IA-LM; first compound 0.1581 µM) of 0.623 and a relative viability (IA-LM; first compound 0.5 µM) of 0.614. The relative viability (EBC-1; first compound 0.005 µM) was 0.5, the relative viability (EBC-1; first compound 0.01581 µM) was 0.561 and the relative viability (EBC-1; first compound 0.05 µM) was 0.624. The relative viability (EBC-1; first compound 0.1581 µM) was 0.511, the relative viability (EBC-1; first compound 0.5 µM) was 0.477 and the relative viability (Calu-6; first compound 0.005 µM) was 0.904. The relative viability (Calu-6; first compound 0.01581 µM) was 1.08, the relative viability (Calu-6; first compound 0.05 µM) was 0.986 and the relative viability (Calu-6; first compound 0.1581 µM) was 0.965. It also gave a relative viability (Calu-6; first compound 0.5 µM) of 0.95, a relative viability (NCI-H1299; first compound 0.005 µM) of 1.05 and a relative viability (NCI-H1299; first compound 0.01581 µM) of 1.02. It also gave a relative viability (NCI-H1299; first compound 0.05 µM) of 1.01, a relative viability (NCI-H1299; first compound 0.1581 µM) of 1.06 and a relative viability (NCI-H1299; first compound 0.5 µM) of 0.958.
For `CC(=O)O[C@@]12CO[C@@H]1C[C@H](O)[C@@]1(C)C(=O)[C@H](O)C3=C(C)[C@@H](OC(=O)[C@H](O)[C@@H](NC(=O)OC(C)(C)C)c4ccccc4)C[C@@](O)([C@@H](OC(=O)c4ccccc4)[C@H]21)C3(C)C` [Docetaxel] + CC(C)C[C@H](NC(=O)[C@H](Cc1ccccc1)NC(=O)c1cnccn1)B(O)O [Bortezomib] (partner 0.002 µM), the relative viability (NCI-H460; first compound 0.0002 µM) was 0.959, the relative viability (NCI-H460; first compound 0.000632 µM) was 0.735 and the relative viability (NCI-H460; first compound 0.002 µM) was 0.0916. The relative viability (NCI-H460; first compound 0.006325 µM) was 0.0162, the relative viability (NCI-H460; first compound 0.02 µM) was 0.0121 and the relative viability (NCI-H2009; first compound 0.0002 µM) was 0.99. For the same molecule, the relative viability (NCI-H2009; first compound 0.000632 µM) was 1.01, the relative viability (NCI-H2009; first compound 0.002 µM) was 0.914 and the relative viability (NCI-H2009; first compound 0.006325 µM) was 0.263. The relative viability (NCI-H2009; first compound 0.02 µM) was 0.178, the relative viability (NCI-H661; first compound 0.0002 µM) was 0.702 and the relative viability (NCI-H661; first compound 0.000632 µM) was 0.784. For the same molecule, the relative viability (NCI-H661; first compound 0.002 µM) was 0.68, the relative viability (NCI-H661; first compound 0.006325 µM) was 0.634 and the relative viability (NCI-H661; first compound 0.02 µM) was 0.224. The relative viability (NCI-H1703; first compound 0.0002 µM) was 0.256, the relative viability (NCI-H1703; first compound 0.000632 µM) was 0.249 and the relative viability (NCI-H1703; first compound 0.006325 µM) was 0.149. The relative viability (NCI-H1703; first compound 0.02 µM) was 0.0944, the relative viability (HCC-78; first compound 0.0002 µM) was 0.581 and the relative viability (HCC-78; first compound 0.000632 µM) was 0.524. The relative viability (HCC-78; first compound 0.002 µM) was 0.326, the relative viability (HCC-78; first compound 0.006325 µM) was 0.487 and the relative viability (HCC-78; first compound 0.02 µM) was 0.27. For the same molecule, the relative viability (IA-LM; first compound 0.0002 µM) was 0.471, the relative viability (IA-LM; first compound 0.000632 µM) was 0.192 and the relative viability (IA-LM; first compound 0.002 µM) was 0.11. It also gave a relative viability (IA-LM; first compound 0.006325 µM) of 0.0654, a relative viability (IA-LM; first compound 0.02 µM) of 0.0642 and a relative viability (EBC-1; first compound 0.0002 µM) of 0.479. The relative viability (EBC-1; first compound 0.000632 µM) was 0.385, the relative viability (EBC-1; first compound 0.002 µM) was 0.237 and the relative viability (EBC-1; first compound 0.006325 µM) was 0.27. The relative viability (EBC-1; first compound 0.02 µM) was 0.174, the relative viability (Calu-6; first compound 0.0002 µM) was 0.95 and the relative viability (Calu-6; first compound 0.000632 µM) was 0.828. It also gave a relative viability (Calu-6; first compound 0.002 µM) of 0.327, a relative viability (Calu-6; first compound 0.006325 µM) of 0.182 and a relative viability (Calu-6; first compound 0.02 µM) of 0.106. The relative viability (NCI-H1299; first compound 0.0002 µM) was 1.05, the relative viability (NCI-H1299; first compound 0.000632 µM) was 0.997 and the relative viability (NCI-H1299; first compound 0.002 µM) was 0.948. For the same molecule, the relative viability (NCI-H1299; first compound 0.006325 µM) was 0.586 and the relative viability (NCI-H1299; first compound 0.02 µM) was 0.503.
